According to patent publication US9771394B2, “Antimicrobial polymyxins for treatment of bacterial infections” (priority 2014, dated 2017):
Like-named read-outs stand apart in the source and are kept apart here. Starred links: 1 amine or outer side, 2 acyl side, 3 side chain; linkers in the order of their positions; H or OH if unused. Positions of bridges follow the written chain, without caps; N, C: chain ends. Non-standard residues stand in square brackets, D forms with d. Residues, ends and D or L forms follow the SMILES beside them. ξ: configuration not given here. *: point of attachment. X3 = CCCCCCCC(=O)O[C@@H](CCN)C(=O)*; Thr(3ξ) = CC(O)[C@H](N)C(=O)O; Suc = O=C(CCC(=O)[*:2])[*:1]; X1 = CCC(C)(C)C(=O)OCCC(=O)*; X5 = CCCCOP(=O)(O)CC(=O)*; Dab = NCC[C@H](N)C(=O)O

Legend:
[1] = tested on: Gram-negative pathogens Pseudomonas aeruginosa, Escherichia coli, or Klebsiela pneumoniae; assay: MIC, Gram-negative panel of Table 1; format: cell-based
Description: In vitro activity of compounds provided herein may be assessed by standard testing procedures such as the determination of minimum inhibitory concentration (MIC, μg/mL) just as described in “Methods for Dilution Antimicrobial Susceptibility Tests for Bacteria That Grow Aerobically; Approved Standard—Ninth Edition,” published in 2012 by the Clinical and Laboratory Standards Institute, Wayne, Pa., USA. Thus, bacterial colonies grown overnight on Mueller-Hinton Agar plate were selected and suspended in sterile saline to a turbidity of about 80% transmittance, as measured by a spectrophotometer. The suspension was diluted 200-fold with cation-adjusted Mueller-Hinton broth to serve as the inoculum for testing. Two-fold serial dilutions of the test compound were performed in 96-well master plate to arrive at desired concentration. Samples of 10 microliter from each well of the master plate were transferred into respective wells of 96-well assay plate. Bacterial inoculum (90 microliter) was introduced into each well of the assay plate. The assay plate was placed in the incubator at 35° C. for about 24 h (without agitation) followed by the MIC determination. MIC values were determined based on the presence or absence of bacterial growth in wells at the given test agent concentration. MIC value is defined as the lowest concentration of test antibiotic that prevents visible bacterial growth. […]

[2] = tested on: K. pneumoniae KPN1004; format: cell-based, Klebsiela pneumoniae
Description: (§1) In vitro activity of compounds provided herein may be assessed by standard testing procedures such as the determination of minimum inhibitory concentration (MIC, μg/mL) just as described in “Methods for Dilution Antimicrobial Susceptibility Tests for Bacteria That Grow Aerobically; Approved Standard—Ninth Edition,” published in 2012 by the Clinical and Laboratory Standards Institute, Wayne, Pa., USA. Thus, bacterial colonies grown overnight on Mueller-Hinton Agar plate were selected and suspended in sterile saline to a turbidity of about 80% transmittance, as measured by a spectrophotometer. The suspension was diluted 200-fold with cation-adjusted Mueller-Hinton broth to serve as the inoculum for testing. Two-fold serial dilutions of the test compound were performed in 96-well master plate to arrive at desired concentration. Samples of 10 microliter from each well of the master plate were transferred into respective wells of 96-well assay plate. Bacterial inoculum (90 microliter) was introduced into each well of the assay plate. The assay plate was placed in the incubator at 35° C. for about 24 h (without agitation) followed by the MIC determination. MIC values were determined based on the presence or absence of bacterial growth in wells at the given test agent concentration. MIC value is defined as the lowest concentration of test antibiotic that prevents visible bacterial growth.
(§2) The useful activity of exemplary compounds described herein against Gram-negative pathogens Pseudomonas aeruginosa, Escherichia coli, or Klebsiela pneumoniae is illustrated by the MIC data of Table 1.

[3] = tested on: E. coli WECO 1003; format: cell-based, Escherichia coli
Description: as §1, §2

[4] = tested on: P. aeruginosa PAE 1001; format: cell-based, Pseudomonas aeruginosa
Description: as §1, §2

[5] = Stability in human plasma at 37° C.; format: in vitro ADME
Description: Exemplary compounds of this invention were tested for stability in human plasma at 37° C., replicating in vivo conditions of mammalian blood. Plasma stability for select compounds was performed as follows. Human plasma (K2 EDTA) was obtained from Bioreclamation. The assay was carried out in 96-well microtiter plates. Test compounds were incubated in duplicate at 37° C. in the presence of plasma. Reaction mixtures (25 μL) contained a final concentration of 25 μM test compound. The extent of metabolism was calculated as the disappearance of the test compound over time. Eucatropine was included as a positive control to verify assay performance. At each given time point, 100 μL of quench solution (100% MeCN with 0.1% HCOOH) with internal standard was transferred to each well. Plates were sealed, vortexed, and centrifuged at 4° C. for 15 minutes at 4,000 rpm. The supernatant was transferred to fresh plates for LC/MS/MS analysis. The formation of a potential metabolite was monitored in all samples. The samples were analyzed on LC/MS/MS using an AB Sciex API 4000 instrument, coupled to a Shimadzu LC-20AD LC Pump system. Analytical samples were separated using a Waters Atlantis T3 dC18 reverse phase HPLC column (20 mm×2.1 mm) at […] a flow rate of 0.5 mL/min, eluting with 0.1% aq. HCOOH and 0.1% HCOOH in MeCN (using gradient from 2% to 98% of the latter). Remaining test compounds were quantified via MS/MS ion current.

[6] = tested on: E. coli; assay: E. coli septicemia (systemic) mouse model, IV dosing; format: in vivo, Escherichia coli; conditions: PMB values are side-by-side comparator
Description: (§3) A lower ED50 value indicates a higher therapeutic efficacy of the drug. The number of surviving animals (from the total number of infected animals used at a given drug dose) is another indicator of efficacy. […] In thigh and lung infection models, a greater reduction in the bacterial colony-forming units (CFU) indicates stronger beneficial therapeutic effect (more bacterial eradication), while a lower CFU reduction or an increase in CFU value indicates a lower effect (less bacterial eradication), or an absence of the therapeutic effect.

[7] = tested on: P. aeruginosa; assay: P. aeruginosa lung infection (pneumonia) mouse model, SC dosing; format: in vivo, Pseudomonas aeruginosa
Description: as §3

[8] = tested on: human HK-2 cell; assay: Human HK-2 cell cytotoxicity assay (in vitro nephrotoxicity); format: cell-based
Description: Nephrotoxicity of polymyxins could be determined in vitro using human renal […] (HK-2) cytotoxicity assay, analogously to that described, for example, by Keirstead et al. in Toxicol. Sci., 2014, vol. 137, pp. 278-291. In vivo, nephrotoxicity could be determined using urine biomarker assays, such as clinically validated neutrophil gelatinase-associated lipocalin (NGAL) assay described, for example by Devarajan in Scand. J. Clin. Lab. Invest. Suppl., 2008, vol. […], pp. 89-94.

[9] = tested on: P. aeruginosa; assay: P. aeruginosa thigh infection mouse model, IV dosing; format: in vivo, Pseudomonas aeruginosa; conditions: CFU change at 12 h vs no treatment control, PMB values in parenthesis side-by-side
Description: as §3

[10] = 35° C., about 24 h, cation-adjusted Mueller-Hinton broth

SMILES | fold less active than polymyxin B comparator (MIC) ([1]; vs polymyxin B) | Antibacterial activity (MIC) K. pneumoniae KPN1004 [2, 10] [µg/mL] | Antibacterial activity (MIC) E. coli WECO 1003 [3, 10] [µg/mL] | Antibacterial activity (MIC) P. aeruginosa PAE 1001 [4, 10] [µg/mL] | remaining at 1 h, 25 μM ([5]; human, plasma) [%] | remaining at 4 h, 25 μM ([5]; human, plasma) [%] | E. coli Systemic model, IV dosing ED50 [6] [mg/kg] | number (A) of surviving animals out of total (B) mice, A/B ([6]; at 5 mg/kg) | Antibacterial activity (MIC) K. pneumoniae KPN1004 ([2]; KPN1004, 24 h) [µg/mL] | Antibacterial activity (MIC) E. coli WECO 1003 ([3]; WECO 1003, 24 h) [µg/mL] | Relative CFU count, vs. PMB ([7]; mouse lung infection, 10 mg/kg) | P. aeruginosa Lung infection model ΔlogCFU at 10 mg/kg ([7]; mouse, CFU change at 24 h vs starting inoculum) | HK-2 cytotoxicity class [8] | IC50 [8] [µM] | Antibacterial activity (MIC) P. aeruginosa PAE 1001 ([4]; PAE 1001, 24 h) [µg/mL] | P. aeruginosa Thigh model, IV dosing ΔlogCFU at 5 mg/kg [9] | antibacterial activity in words (MIC, Table 1) ([1]; Example 19: against two Gram-negative pathogens in the test) | formation of the expected metabolite (compound of Example 44) by MS analysis [5] | metabolism in human plasma [5]
CCCCOP(=O)(O)CC(=O)N[C@@H](CCN)C(=O)N[C@H](C(=O)N[C@@H](CCN)C(=O)N[C@H]1CCNC(=O)[C@H](C(C)O)NC(=O)[C@H](CCN)NC(=O)[C@H](CCN)NC(=O)[C@H](CC(C)C)NC(=O)[C@@H](Cc2ccccc2)NC(=O)[C@H](CCN)NC1=O)C(C)O (stereo partly drawn) [Example 33] (X5-[Dab][Thr(3ξ)][Dab][Dab][Dab][dF]L[Dab][Dab][Thr(3ξ)]; lactam 4-C) | about 2 fold | 8 | 8 | 8 |  |  |  |  |  |  |  |  |  |  |  |  |  |  | 
CCC(C)(C)C(=O)OCCC(=O)N[C@@H](CCN)C(=O)N[C@H](C(=O)N[C@@H](CCN)C(=O)N[C@H]1CCNC(=O)[C@H](C(C)O)NC(=O)[C@H](CCN)NC(=O)[C@H](CCN)NC(=O)[C@H](CC(C)C)NC(=O)[C@@H](Cc2ccccc2)NC(=O)[C@H](CCN)NC1=O)C(C)O (stereo partly drawn) [Example 12] (X1-[Dab][Thr(3ξ)][Dab][Dab][Dab][dF]L[Dab][Dab][Thr(3ξ)]; lactam 4-C) |  |  |  |  | 67 | 31 | 2.5 | 3/6 | 2 | 2 | 1.7 × 10^−5 | −2.15 | Class 4 | > 200 | 4 | −1.44 |  |  | 
CC(C)C[C@@H]1NC(=O)[C@@H](Cc2ccccc2)NC(=O)[C@H](CCN)NC(=O)[C@@H](NC(=O)[C@H](CCN)NC(=O)[C@@H](NC(=O)[C@H](CCN)NC(=O)CCC(=O)O)C(C)O)CCNC(=O)[C@H](C(C)O)NC(=O)[C@H](CCN)NC(=O)[C@H](CCN)NC1=O (stereo partly drawn) [Example 19] (Suc-[Dab][Thr(3ξ)][Dab][Dab][Dab][dF]L[Dab][Dab][Thr(3ξ)]; lactam 4-C) |  |  |  |  |  |  |  |  | >32 | >32 |  |  | Class 4 | > 200 | 4 | −0.14 | essentially inactive |  | 
CCCCCCCC(=O)O[C@@H](CCN)C(=O)N[C@H](C(=O)N[C@@H](CCN)C(=O)N[C@H]1CCNC(=O)[C@H](C(C)O)NC(=O)[C@H](CCN)NC(=O)[C@H](CCN)NC(=O)[C@H](CC(C)C)NC(=O)[C@@H](Cc2ccccc2)NC(=O)[C@H](CCN)NC1=O)C(C)O (stereo partly drawn) [Reference Example 1, reference compound] (X3-[Thr(3ξ)][Dab][Dab][Dab][dF]L[Dab][Dab][Thr(3ξ)]; lactam 3-C) |  |  |  |  |  | 100 |  |  | 2 | 4 |  |  |  |  | 8 | −1.92 |  | no formation | no discernable metabolism
